Biological target: xanthine oxidase (Homo sapiens, UniProt P47989)
Assay: Xanthine oxidase inhibitory activity measured by HPLC (xanthine content)
Assay type: biochemical
Conditions: Flazin samples 0.625-20.0 mg/ml; xanthine 50 μg/ml, xanthine oxidase 0.1 U, 30° C., 30 min; FIG. 1
Experimental: Xanthine oxidase inhibitory activity was measured as follows. Firstly, concentrations (0.625, 1.25, 2.5, 5.0, 10.0 and 20.0 mg/ml) of Flazin samples were prepared. Then, xanthine oxidase inhibitory activity was measured by HPLC by the following procedure. In a reaction tube, 880 μl of xanthine (50 μg/ml in 100 mM PBS) and 40 μl of 50 mM PBS or 40 μl of the Flazin samples were premixed, and 80 μl […] of xanthine oxidase (0.1 U) was added to initiate the reaction. The reaction was incubated at 30° C. for 30 min., after which an equal volume of absolute ethanol was added to terminate the reaction. The terminated reaction was filtered through a 0.22 μm membrane filter and the content of xanthine in the reactions was analyzed by HPLC. Xanthine oxidase inhibitory activity of the samples was calculated as follows: […]

Sequence of xanthine oxidase (P47989 whole entry, species assumed): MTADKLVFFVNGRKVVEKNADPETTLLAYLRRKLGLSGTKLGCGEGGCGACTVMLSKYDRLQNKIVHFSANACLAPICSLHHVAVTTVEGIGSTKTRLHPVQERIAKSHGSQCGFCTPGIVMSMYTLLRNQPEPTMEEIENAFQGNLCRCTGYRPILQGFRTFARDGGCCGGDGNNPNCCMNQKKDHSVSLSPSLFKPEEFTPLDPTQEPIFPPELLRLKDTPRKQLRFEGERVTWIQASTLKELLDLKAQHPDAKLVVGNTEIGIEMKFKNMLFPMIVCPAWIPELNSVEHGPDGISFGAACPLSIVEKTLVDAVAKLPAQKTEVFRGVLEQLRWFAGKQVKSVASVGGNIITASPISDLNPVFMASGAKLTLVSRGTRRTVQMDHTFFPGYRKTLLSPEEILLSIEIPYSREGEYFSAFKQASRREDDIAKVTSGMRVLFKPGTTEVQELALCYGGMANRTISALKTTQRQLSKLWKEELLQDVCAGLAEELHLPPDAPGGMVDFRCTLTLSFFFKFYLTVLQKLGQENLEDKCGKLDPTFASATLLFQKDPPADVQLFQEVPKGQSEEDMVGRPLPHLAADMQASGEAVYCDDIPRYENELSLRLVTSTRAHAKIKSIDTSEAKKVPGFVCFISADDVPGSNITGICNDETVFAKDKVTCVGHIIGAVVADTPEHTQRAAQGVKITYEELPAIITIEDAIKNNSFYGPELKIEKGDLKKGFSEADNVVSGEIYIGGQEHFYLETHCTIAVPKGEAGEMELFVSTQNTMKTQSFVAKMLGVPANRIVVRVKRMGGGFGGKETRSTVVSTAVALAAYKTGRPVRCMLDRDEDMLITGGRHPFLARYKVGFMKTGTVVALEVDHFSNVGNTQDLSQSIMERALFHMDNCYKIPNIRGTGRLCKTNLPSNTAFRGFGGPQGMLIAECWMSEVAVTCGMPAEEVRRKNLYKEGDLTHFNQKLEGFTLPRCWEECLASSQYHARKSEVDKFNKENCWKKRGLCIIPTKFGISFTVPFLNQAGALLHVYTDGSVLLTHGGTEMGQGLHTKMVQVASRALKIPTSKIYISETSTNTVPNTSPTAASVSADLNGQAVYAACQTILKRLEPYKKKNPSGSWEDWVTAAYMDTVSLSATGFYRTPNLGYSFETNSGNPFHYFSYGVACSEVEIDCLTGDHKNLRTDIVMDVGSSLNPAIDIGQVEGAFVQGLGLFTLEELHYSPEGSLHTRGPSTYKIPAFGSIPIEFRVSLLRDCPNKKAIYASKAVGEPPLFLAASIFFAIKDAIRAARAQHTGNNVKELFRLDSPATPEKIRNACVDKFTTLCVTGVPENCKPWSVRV

IC50: ~32.1 mM
SMILES: O=C(O)c1cc2c([nH]c3ccccc32)c(-c2ccc(CO)o2)n1 [Flazin, 1-[5-(hydroxymethyl)furan-2-yl]-9H-pyrido[3,4-b]indole-3-carboxylic acid]
